Reference: patent US11547686B2 (priority 2017, dated 2023)
Values after ≈ are worked out from the molar mass of the structure shown. Like-named read-outs stand apart in the source and are kept apart here. Marks after values point to notes of the source that are not given here.

Columns and labels:
[1] = Solubility of pregabalin and acetaminophen in water at different pH values (HPLC-UV); conditions: for solubility: thermodynamic from solid
Description: The pH was then adjusted to the required range. The concentration of the active ingredients was determined by HPLC-UV.

[2] = tested on: red blood cells (human whole unclotted blood); test: In vitro hemolysis test, human blood; conditions: 15 min at 37° C.
[3] = Pharmacokinetic parameters after 15 min infusion in rats; conditions: for AUC(0-inf) / Cmax: rat, in vivo, iv
Description: The active ingredients were dissolved in 0.9% saline (20 mL) to achieve the desired concentration. The saline and vial constituents were mixed with by gentle swirling until a clear solution was obtained. The obtained clear solution was filtered through a sterile 0.45 μm PVDF membrane syringe filter and then used for further studies.
(§1) Blood samples were collected over a 24 h period, at which time the rats were exsanguinated, and the blood was collected for clinical pathology evaluation (chemistry, hematology, and coagulation). Finally, all the animals were necropsied (all exterior and interior cavities and organs were examined), and the site of infusion in the jugular vein, lung, liver, and kidney underwent histopathologic evaluation.

[4] = tested on: red blood cells (dog whole unclotted blood); test: In vitro hemolysis test, dog blood; conditions: 15 min at 37° C.
[5] = rats, 15 min IV infusion
Description: as §1

[6] = tested on: red blood cells (mouse whole unclotted blood); test: In vitro hemolysis test, mouse blood; conditions: 15 min at 37° C.
[7] = tested on: red blood cells (rat whole unclotted blood); test: In vitro hemolysis test, rat blood; conditions: 15 min at 37° C.
[8] = Necropsy and histopathologic evaluation after intravenous infusion in rats; conditions: n = 6 per group
Description: as §1

[9] = tested on: somatic pain in a rat model; test: Hot plate test (somatic pain); type: in vivo, Sprague-Dawley rats; conditions: rats; morphine 3 mg/kg s.c.; combination 50 mg/kg APAP; 40 mg/kg pregabalin IV infusion
Description: Hot Plate Test: The hot plate test is a test that can be used to assess pain sensitivity in rodents. […] In the test, an animal is placed in a confined cylindrical space to restrict locomotion. The floor surface of the space is maintained at a temperature sufficiently hot to elicit an aversive response, but not so hot that tissue damage is induced, typically 50-56° C. The animal is monitored, and latency to paw licking or jumping is recorded. This test can be used to screen novel drugs or drug combinations for effects on pain detection threshold; substances with an analgesic effect can increase latency to licking/jumping, while substances with a hyperalgesic effect can decrease latency.
The effect on somatic pain was tested in groups of 8 Male Sprague-Dawley rats.
Vehicle and test agents were administered by intravenous infusion (IV-CI) over 15 minutes starting 30 minutes before Time 0 (15 minutes post infusion). Morphine was used as a positive control, and was administered (3 mg/kg) by subcutaneous administration 60 minutes before Time 0. […] The pain threshold of the rats was assessed based on the time (seconds) required to elicit a paw withdrawal response (latency).
The data were analyzed by a one-way ANOVA followed by Dunnett's test for comparison between vehicle control and test article/positive control groups.

## CC(C)C[C@H](CN)CC(=O)O [Pregabalin, (3S)-3-(Aminomethyl)-5-methylhexanoic acid]
[1]; aqueous buffer, Solubility of pregabalin, water, pH range of 5-7, pregabalin alone
  solubility: ~31 mg/mL (≈ 195 mM)
[1]; pH 4, aqueous buffer, Solubility of pregabalin, water, pH 4, co-dissolved with acetaminophen
  solubility: 54.4 mg/mL (≈ 342 mM)
[1]; pH 4, aqueous buffer, Solubility of pregabalin, water, room temperature, pH 4, pregabalin alone
  solubility: 54.4 mg/mL (≈ 342 mM)
[1]; pH 5, aqueous buffer, Solubility of pregabalin, water, pH 5, co-dissolved with acetaminophen
  solubility: 36.8 mg/mL (≈ 231 mM)
[1]; pH 5, aqueous buffer, Solubility of pregabalin, water, room temperature, pH 5, pregabalin alone
  solubility: 32.4 mg/mL (≈ 203 mM)
[1]; pH 6, aqueous buffer, Solubility of pregabalin, water, pH 6, co-dissolved with acetaminophen
  solubility: 35 mg/mL (≈ 220 mM)
[1]; pH 6, aqueous buffer, Solubility of pregabalin, water, room temperature, pH 6, pregabalin alone
  solubility: 31 mg/mL (≈ 195 mM)
[1]; pH 7, aqueous buffer, Solubility of pregabalin, water, pH 7, co-dissolved with acetaminophen
  solubility: 35 mg/mL (≈ 220 mM)
[1]; pH 7, aqueous buffer, Solubility of pregabalin, water, room temperature, pH 7, pregabalin alone
  solubility: 30.6 mg/mL (≈ 192 mM)
[1]; pH range of 5-7, versus pregabalin alone
  Change in the solubility of pregabalin in the presence of acetaminophen: increase
[2]; PGB 0.75 mg/mL
  % Hemolysis: 0%
[2]; PGB 1.5 mg/mL
  % Hemolysis: 7%
[2]; PGB 3 mg/mL
  % Hemolysis: 1%
[3]; 1.25 mg/kg, AUC0-∞ of pregabalin, rats, 15 min IV infusion, Pregabalin 1.25 mg/kg
  AUC(0-inf): 6750 ng·h/mL
[3]; 1.25 mg/kg, Cmax of pregabalin, rats, 15 min IV infusion, Pregabalin 1.25 mg/kg
  Cmax: 2060 ng/mL
[3]; 1.25 mg/kg, Equivalence (80%-125%) range of pregabalin AUC0-∞, rats, Pregabalin 1.25 mg/kg alone as reference
  AUC(0-inf): 5400 to 8440 ng·h/mL
[3]; 1.25 mg/kg, Equivalence (80%-125%) range of pregabalin Cmax, rats, Pregabalin 1.25 mg/kg alone as reference
  Cmax: 1650 to 2580 ng/mL
[3]; 5 mg/kg, AUC0-∞ of pregabalin, rats, 15 min IV infusion, Pregabalin 5 mg/kg
  AUC(0-inf): 26100 ng·h/mL
[3]; 5 mg/kg, Cmax of pregabalin, rats, 15 min IV infusion, Pregabalin 5 mg/kg
  Cmax: 7910 ng/mL
[3]; 5 mg/kg, Equivalence (80%-125%) range of pregabalin AUC0-∞, rats, Pregabalin 5 mg/kg alone as reference
  AUC(0-inf): 20900 to 32700 ng·h/mL
[3]; 5 mg/kg, Equivalence (80%-125%) range of pregabalin Cmax, rats, Pregabalin 5 mg/kg alone as reference
  Cmax: 6330 to 9880 ng/mL
[3]; rats, 15 min IV infusion
  Change in the pharmacokinetic profile of pregabalin in the presence or absence of acetaminophen: No change
[4]; PGB 0.75 mg/mL
  % Hemolysis: 0%
[4]; PGB 1.5 mg/mL
  % Hemolysis: 0%
[4]; PGB 3 mg/mL
  % Hemolysis: 1%
[5]; PGB 1.25 mg/kg
  ALBGLOB (albumin/globulin ratio, calculated): 1.4
  ALP (alkaline phosphatase): 99 U/L
  ALT (alanine aminotransferase): 45 U/L
  APPT (Activated partial thromboplastin time): 12.9 s
  AST (aspartate aminotransferase): 93 ** U/L
  Albumin: 4.0 g/dL
  Basophils: 80 µL⁻¹
  Bilirubin: 0.02 mg/dL
  Calcium: 11.4 mg/dL
  Chloride: 102 mEq/L
  Cholesterol: 94 mg/dL
  Creatinine: 0.47 mg/dL
  Eosinophils: 280 µL⁻¹
  GLOBUL (globulin, calculated): 2.8 g/dL
  Glucose: 166 mg/dL
  Hematocrit: 44.2%
  Hemoglobin: 14.2 g/dL
  LGLUCLE (large unstained cell): 100 µL⁻¹
  Lymphocytes: 9400 µL⁻¹
  MCH (mean cell hemoglobin): 17.8 pg
  MCHC (mean cell hemoglobin concentration): 32 g/dL
  MCV (mean cell volume): 55.8 fL
  Monocytes: 500 µL⁻¹
  Neutrophils: 1400 µL⁻¹
  PHOS (inorganic phosphorus): 10.6 mg/dL
  Platelets: 908000 µL⁻¹
  Potassium: 7.3 mEq/L
  Protein: 6.7 g/dL
  Prothrombin time: 16.8 s
  RBC: 7.93e+06 µL⁻¹
  Reticulocytes: 4.11 * %
  Sodium: 148 * mEq/L
  Triglycerides: 33 mg/dL
  UREAN (blood urea nitrogen): 19 mg/dL
  WBC: 11740 µL⁻¹
[5]; PGB 5 mg/kg
  ALBGLOB (albumin/globulin ratio, calculated): 1.4
  ALP (alkaline phosphatase): 97 U/L
  ALT (alanine aminotransferase): 51 U/L
  APPT (Activated partial thromboplastin time): 12.4 s
  AST (aspartate aminotransferase): 107 U/L
  Albumin: 3.9 g/dL
  Basophils: 80 µL⁻¹
  Bilirubin: 0.02 mg/dL
  Calcium: 11.5 mg/dL
  Chloride: 101 mEq/L
  Cholesterol: 93 mg/dL
  Creatinine: 0.44 mg/dL
  Eosinophils: 350 µL⁻¹
  GLOBUL (globulin, calculated): 2.8 g/dL
  Glucose: 150 mg/dL
  Hematocrit: 45.1%
  Hemoglobin: 14.4 g/dL
  LGLUCLE (large unstained cell): 80 µL⁻¹
  Lymphocytes: 10810 µL⁻¹
  MCH (mean cell hemoglobin): 18.3 pg
  MCHC (mean cell hemoglobin concentration): 32.1 g/dL
  MCV (mean cell volume): 57.1 fL
  Monocytes: 450 µL⁻¹
  Neutrophils: 1520 µL⁻¹
  PHOS (inorganic phosphorus): 10 ** mg/dL
  Platelets: 933000 µL⁻¹
  Potassium: 6.9 * mEq/L
  Protein: 6.7 g/dL
  Prothrombin time: 16.6 s
  RBC: 7.9e+06 µL⁻¹
  Reticulocytes: 4.7%
  Sodium: 147 mEq/L
  Triglycerides: 30 mg/dL
  UREAN (blood urea nitrogen): 19 mg/dL
  WBC: 13280 µL⁻¹
[6]; PGB 0.75 mg/mL
  % Hemolysis: 0%
[6]; PGB 1.5 mg/mL
  % Hemolysis: 4%
[6]; PGB 3 mg/mL
  % Hemolysis: 0%
[7]; PGB 0.75 mg/mL
  % Hemolysis: 2%
[7]; PGB 1.5 mg/mL
  % Hemolysis: 0%
[7]; PGB 3 mg/mL
  % Hemolysis: 2%
[8]; PGB 1.25 mg/kg
  Necropsy Observation: Lung Discolored: 1
  Necropsy Observation: Lung Focus: 1
[8]; PGB 5 mg/kg
  Necropsy Observation: Lung Discolored: 0
  Necropsy Observation: Lung Focus: 2

## CC(=O)Nc1ccc(O)cc1 [Acetaminophen, N-(4-hydroxyphenyl)acetamide]
[1]; pH 4, aqueous buffer, Solubility of acetaminophen, water, pH 4, co-dissolved with pregabalin
  solubility: ~21 mg/mL (≈ 139 mM)
[1]; pH 5, aqueous buffer, Solubility of acetaminophen, water, pH 5, co-dissolved with pregabalin
  solubility: 18.7 mg/mL (≈ 124 mM)
[1]; pH 6, aqueous buffer, Solubility of acetaminophen, water, pH 6, co-dissolved with pregabalin
  solubility: 17.9 mg/mL (≈ 118 mM)
[1]; pH 7, aqueous buffer, Solubility of acetaminophen, water, pH 7, co-dissolved with pregabalin
  solubility: 17.9 mg/mL (≈ 118 mM)
[1]; pH range from 4-7, acetaminophen alone
  Difference in the solubility of acetaminophen: no significant difference
[1]; water, pH 4, co-dissolved with pregabalin
  Solubility of acetaminophen: 20.8 mg/mL
[2]; APAP 5 mg/mL
  % Hemolysis: 2%
[2]; APAP 7.5 mg/mL
  % Hemolysis: 0%
[2]; APAP 10 mg/mL
  % Hemolysis: 6%
[3]; 17 mg/kg, AUC0-∞ of acetaminophen
  AUC(0-inf): 11500 ng·h/mL
[3]; 17 mg/kg, Cmax of acetaminophen
  Cmax: 18600 ng/mL
[3]; 17 mg/kg, Equivalence (80%-125%) range of acetaminophen AUC0-∞
  AUC(0-inf): 9190 to 14400 ng·h/mL
[3]; 17 mg/kg, Equivalence (80%-125%) range of acetaminophen Cmax
  Cmax: 14900 to 23300 ng/mL
[3]; rats, 15 min IV infusion
  Effect of the presence or absence of pregabalin on the pharmacokinetics of acetaminophen: did not affect
[4]; APAP 5 mg/mL
  % Hemolysis: 0%
[4]; APAP 7.5 mg/mL
  % Hemolysis: 0%
[4]; APAP 10 mg/mL
  % Hemolysis: 0%
[6]; APAP 5 mg/mL
  % Hemolysis: 5%
[6]; APAP 7.5 mg/mL
  % Hemolysis: 5%
[6]; APAP 10 mg/mL
  % Hemolysis: 4%
[7]; APAP 5 mg/mL
  % Hemolysis: 6%
[7]; APAP 7.5 mg/mL
  % Hemolysis: 0%
[7]; APAP 10 mg/mL
  % Hemolysis: 2%

## CN1CC[C@]23c4c5ccc(O)c4O[C@H]2[C@@H](O)C=C[C@H]3[C@H]1C5 [morphine]
[9]
  Onset of the analgesic effect: near immediate
